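Grown in 96-well plates, cells were treated for 48 hours with each compound at five concentrations. Insufficient inhibition: endpoint recorded as highest concentration tested. TGI is the concentration that stops growth completely.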
How the values were obtained:
Test in all cases: DTP human tumour cell line panel, 48 h
HOP-62 NSCLC = system: HOP-62 NSCLC
K-562 leukemia = system: K-562 leukemia
MALME-3M melanoma = system: MALME-3M melanoma
NCI-H23 lung = system: NCI-H23 lung
OVCAR-4 ovarian = system: OVCAR-4 ovarian
RXF 393 renal = system: RXF 393 renal
SF-539 CNS = system: SF-539 CNS
SW-620 colon = system: SW-620 colon
TK-10 renal = system: TK-10 renal
UO-31 renal = system: UO-31 renal
CAKI-1 renal = system: CAKI-1 renal
MDA-MB-231 breast = system: MDA-MB-231 breast

## C[N+]1(C)CCCC1C(=O)[O-] (centres undefined)
HOP-62 NSCLC
  TGI: > 100 µM
K-562 leukemia
  TGI: > 100 µM
MALME-3M melanoma
  TGI: > 100 µM
NCI-H23 lung
  TGI: > 100 µM
OVCAR-4 ovarian
  TGI: > 100 µM
RXF 393 renal
  TGI: > 100 µM
SF-539 CNS
  TGI: > 100 µM
SW-620 colon
  TGI: > 100 µM
TK-10 renal
  TGI: > 100 µM
UO-31 renal
  TGI: > 100 µM

## O=C(c1ccccc1)c1ccc2c(c1)nc1n2C(c2c(Cl)cccc2Cl)SC1 (centres undefined)
CAKI-1 renal
  TGI: > 100 µM
HOP-62 NSCLC
  TGI: > 100 µM
MALME-3M melanoma
  TGI: > 100 µM
MDA-MB-231 breast
  TGI: > 100 µM
NCI-H23 lung
  TGI: > 100 µM
OVCAR-4 ovarian
  TGI: > 100 µM
RXF 393 renal
  TGI: > 100 µM
SF-539 CNS
  TGI: > 100 µM
SW-620 colon
  TGI: > 100 µM
TK-10 renal
  TGI: > 100 µM
UO-31 renal
  TGI: > 100 µM

## Clc1ccc(-c2ccc(-c3nnc(CCc4nnc(-c5ccc(-c6ccc(Cl)cc6)o5)o4)o3)o2)cc1
CAKI-1 renal
  TGI: > 100 µM
HOP-62 NSCLC
  TGI: > 100 µM
K-562 leukemia
  TGI: > 61.2 µM
MDA-MB-231 breast
  TGI: > 100 µM
NCI-H23 lung
  TGI: > 100 µM
OVCAR-4 ovarian
  TGI: > 100 µM
RXF 393 renal
  TGI: > 56 µM
SF-539 CNS
  TGI: > 100 µM
SW-620 colon
  TGI: > 100 µM
TK-10 renal
  TGI: > 86 µM
UO-31 renal
  TGI: > 100 µM

## C/C=C/[C@@]1(OC(=O)c2ccccc2)C[C@@H]2CCCC[C@@H]21
CAKI-1 renal
  TGI: 31.4 µM
HOP-62 NSCLC
  TGI: 29 µM
K-562 leukemia
  TGI: 56.7 µM
MALME-3M melanoma
  TGI: 35.3 µM
MDA-MB-231 breast
  TGI: 36.3 µM
NCI-H23 lung
  TGI: 31 µM
OVCAR-4 ovarian
  TGI: 32.2 µM
SF-539 CNS
  TGI: 33.1 µM
SW-620 colon
  TGI: 48.3 µM
TK-10 renal
  TGI: 36 µM
UO-31 renal
  TGI: 22.9 µM

## CCN(CC)CCNC(=O)c1ccccc1NC(=O)C(=O)Nc1ccccc1C(=O)NCCN(CC)CC
CAKI-1 renal
  TGI: > 100 µM
HOP-62 NSCLC
  TGI: > 100 µM
K-562 leukemia
  TGI: 42.1 µM
MALME-3M melanoma
  TGI: 37.7 µM
NCI-H23 lung
  TGI: > 100 µM
OVCAR-4 ovarian
  TGI: > 100 µM
SF-539 CNS
  TGI: 62.2 µM
SW-620 colon
  TGI: 42 µM
TK-10 renal
  TGI: > 100 µM
UO-31 renal
  TGI: > 100 µM

## Nc1nc2c(=O)c3ccccc3sc2s1
CAKI-1 renal
  TGI: 91.6 µM
HOP-62 NSCLC
  TGI: > 100 µM
K-562 leukemia
  TGI: > 100 µM
MDA-MB-231 breast
  TGI: > 100 µM
NCI-H23 lung
  TGI: > 100 µM
RXF 393 renal
  TGI: > 100 µM
SF-539 CNS
  TGI: 48.2 µM
SW-620 colon
  TGI: > 100 µM
TK-10 renal
  TGI: > 100 µM
UO-31 renal
  TGI: > 100 µM

## O=C1c2ccccc2C(=O)N1n1c(Cc2ccccc2)n[nH]c1=O
CAKI-1 renal
  TGI: > 100 µM
HOP-62 NSCLC
  TGI: > 100 µM
K-562 leukemia
  TGI: > 100 µM
MALME-3M melanoma
  TGI: > 100 µM
MDA-MB-231 breast
  TGI: > 100 µM
NCI-H23 lung
  TGI: > 100 µM
OVCAR-4 ovarian
  TGI: > 100 µM
SF-539 CNS
  TGI: > 100 µM
SW-620 colon
  TGI: > 100 µM
TK-10 renal
  TGI: > 100 µM
UO-31 renal
  TGI: > 100 µM

## CCOC(=O)CCCn1nnc(C(=O)OCC)c1C(=O)OCC
CAKI-1 renal
  TGI: > 100 µM
HOP-62 NSCLC
  TGI: > 100 µM
MALME-3M melanoma
  TGI: > 100 µM
MDA-MB-231 breast
  TGI: > 100 µM
NCI-H23 lung
  TGI: > 100 µM
OVCAR-4 ovarian
  TGI: > 100 µM
RXF 393 renal
  TGI: > 100 µM
SF-539 CNS
  TGI: > 100 µM
SW-620 colon
  TGI: > 100 µM
TK-10 renal
  TGI: > 100 µM
UO-31 renal
  TGI: > 100 µM

## Nc1nc(N)c2ncn(CC3CCC(CO)C3)c2n1 (centres undefined)
CAKI-1 renal
  TGI: > 100 µM
HOP-62 NSCLC
  TGI: > 100 µM
K-562 leukemia
  TGI: > 100 µM
MDA-MB-231 breast
  TGI: > 100 µM
OVCAR-4 ovarian
  TGI: > 100 µM
RXF 393 renal
  TGI: > 100 µM
SF-539 CNS
  TGI: > 100 µM
SW-620 colon
  TGI: > 100 µM
TK-10 renal
  TGI: > 100 µM
UO-31 renal
  TGI: > 100 µM

## O=C(O)c1ccccc1.[Ag]
CAKI-1 renal
  TGI: 9.89 µM
HOP-62 NSCLC
  TGI: 46.3 µM
K-562 leukemia
  TGI: > 26.4 µM
MALME-3M melanoma
  TGI: 3.25 µM
NCI-H23 lung
  TGI: 54.5 µM
OVCAR-4 ovarian
  TGI: 29.9 µM
RXF 393 renal
  TGI: 35.9 µM
SF-539 CNS
  TGI: 45.4 µM
TK-10 renal
  TGI: 19.6 µM
UO-31 renal
  TGI: 7.17 µM

## CC12CC3C(CC1SCC(=O)O2)C3(C)C (centres undefined)
K-562 leukemia
  TGI: > 100 µM
MALME-3M melanoma
  TGI: > 100 µM
NCI-H23 lung
  TGI: > 100 µM
OVCAR-4 ovarian
  TGI: > 100 µM
SF-539 CNS
  TGI: > 100 µM
TK-10 renal
  TGI: > 100 µM
UO-31 renal
  TGI: > 100 µM

## COC(=O)c1cn(CCCC(=O)O)nn1
CAKI-1 renal
  TGI: > 100 µM
HOP-62 NSCLC
  TGI: > 100 µM
MALME-3M melanoma
  TGI: > 100 µM
MDA-MB-231 breast
  TGI: > 100 µM
NCI-H23 lung
  TGI: > 100 µM
OVCAR-4 ovarian
  TGI: > 100 µM
RXF 393 renal
  TGI: > 100 µM
SF-539 CNS
  TGI: > 100 µM
SW-620 colon
  TGI: > 100 µM
TK-10 renal
  TGI: > 100 µM
UO-31 renal
  TGI: > 100 µM

## O=C(CSc1nnc(-c2ccc(N=Cc3ccc(Cl)cc3)cc2)o1)Nc1ccccc1Cl
HOP-62 NSCLC
  TGI: > 100 µM
K-562 leukemia
  TGI: > 100 µM
MALME-3M melanoma
  TGI: > 100 µM
NCI-H23 lung
  TGI: > 100 µM
OVCAR-4 ovarian
  TGI: > 100 µM
RXF 393 renal
  TGI: > 100 µM
SW-620 colon
  TGI: > 100 µM
TK-10 renal
  TGI: > 100 µM
UO-31 renal
  TGI: > 100 µM

## COCOc1ccc(C(=O)C(C)c2ccc(OCOC)cc2OCOC)c(O)c1 (centres undefined)
CAKI-1 renal
  TGI: > 100 µM
HOP-62 NSCLC
  TGI: > 100 µM
MALME-3M melanoma
  TGI: > 100 µM
NCI-H23 lung
  TGI: > 100 µM
OVCAR-4 ovarian
  TGI: > 100 µM
RXF 393 renal
  TGI: > 100 µM
SF-539 CNS
  TGI: > 100 µM
SW-620 colon
  TGI: > 100 µM
TK-10 renal
  TGI: > 100 µM
UO-31 renal
  TGI: > 100 µM

## C1=C(c2ccccc2)CN(c2ccccc2)OC1
CAKI-1 renal
  TGI: > 100 µM
HOP-62 NSCLC
  TGI: > 100 µM
K-562 leukemia
  TGI: > 100 µM
MALME-3M melanoma
  TGI: > 100 µM
NCI-H23 lung
  TGI: > 100 µM
RXF 393 renal
  TGI: > 100 µM
SF-539 CNS
  TGI: > 100 µM
SW-620 colon
  TGI: > 100 µM
TK-10 renal
  TGI: > 100 µM
UO-31 renal
  TGI: > 100 µM

## O=C1N[C@H]2c3c(Cl)sc(Cl)c3/C(=N/O)[C@H]2O1
CAKI-1 renal
  TGI: > 100 µM
HOP-62 NSCLC
  TGI: > 100 µM
K-562 leukemia
  TGI: > 100 µM
MALME-3M melanoma
  TGI: > 100 µM
MDA-MB-231 breast
  TGI: > 100 µM
RXF 393 renal
  TGI: > 100 µM
SF-539 CNS
  TGI: > 100 µM
SW-620 colon
  TGI: > 100 µM
TK-10 renal
  TGI: > 100 µM
UO-31 renal
  TGI: > 100 µM

## CC1=NN(c2nc(N)nc(-c3ccccc3S(N)(=O)=O)n2)C(C)(C)C1
CAKI-1 renal
  TGI: > 100 µM
HOP-62 NSCLC
  TGI: > 100 µM
K-562 leukemia
  TGI: > 100 µM
MDA-MB-231 breast
  TGI: > 100 µM
NCI-H23 lung
  TGI: > 100 µM
OVCAR-4 ovarian
  TGI: > 100 µM
RXF 393 renal
  TGI: > 100 µM
SF-539 CNS
  TGI: > 100 µM
SW-620 colon
  TGI: > 100 µM
TK-10 renal
  TGI: > 100 µM
UO-31 renal
  TGI: > 100 µM

## Cc1[nH]c2ncn(/N=C/c3ccccc3O)c(=N)c2c1Cc1ccccc1
CAKI-1 renal
  TGI: > 100 µM
HOP-62 NSCLC
  TGI: > 100 µM
K-562 leukemia
  TGI: > 100 µM
MDA-MB-231 breast
  TGI: > 100 µM
NCI-H23 lung
  TGI: > 100 µM
OVCAR-4 ovarian
  TGI: > 100 µM
RXF 393 renal
  TGI: > 100 µM
SF-539 CNS
  TGI: > 100 µM
SW-620 colon
  TGI: > 100 µM
TK-10 renal
  TGI: > 100 µM
UO-31 renal
  TGI: > 100 µM

## C1OCC2S[C@@H]3COCO[C@@H]3C2O1 (some centres undefined)
CAKI-1 renal
  TGI: > 100 µM
HOP-62 NSCLC
  TGI: > 100 µM
K-562 leukemia
  TGI: > 100 µM
MALME-3M melanoma
  TGI: > 100 µM
NCI-H23 lung
  TGI: > 100 µM
OVCAR-4 ovarian
  TGI: > 100 µM
RXF 393 renal
  TGI: > 100 µM
SF-539 CNS
  TGI: > 100 µM
TK-10 renal
  TGI: > 100 µM
UO-31 renal
  TGI: > 100 µM

## CN(C)CC(/C(Cc1ccccc1)=N\NC(=O)C[n+]1ccccc1)c1ccccc1 (centres undefined)
CAKI-1 renal
  TGI: > 100 µM
HOP-62 NSCLC
  TGI: > 100 µM
K-562 leukemia
  TGI: > 100 µM
MALME-3M melanoma
  TGI: > 100 µM
NCI-H23 lung
  TGI: > 100 µM
OVCAR-4 ovarian
  TGI: > 100 µM
RXF 393 renal
  TGI: > 100 µM
SF-539 CNS
  TGI: > 100 µM
TK-10 renal
  TGI: > 100 µM
UO-31 renal
  TGI: > 100 µM

## COc1ccc(Cn2c(C)nc3c2C(=O)c2ccccc2C3=O)cc1
HOP-62 NSCLC
  TGI: 51.7 µM
K-562 leukemia
  TGI: 30.1 µM
MALME-3M melanoma
  TGI: 19 µM
NCI-H23 lung
  TGI: 16.5 µM
OVCAR-4 ovarian
  TGI: 64.1 µM
RXF 393 renal
  TGI: 63.4 µM
SF-539 CNS
  TGI: 38.2 µM
SW-620 colon
  TGI: > 75 µM
TK-10 renal
  TGI: > 75 µM
UO-31 renal
  TGI: 57.4 µM

From PubChem BioAssay (NCI)
